Laboratory results as given in patent publication US5612480A, “2-chloro and 2-bromo derivatives of 1,5-iminosugars” (priority 1995, dated 1997).

Tested on: visna virus
Test: Inhibition of visna virus growth, plaque reduction assay in sheep choroid plexus (SCP) cells (Method A)
Assay type: cell-based
Conditions: Visna-maedi virus; for inhibition at 1 µM: 0.001 mM; for inhibition at 10 µM: 0.01 mM; for inhibition at 100 µM: 0.1 mM; for inhibition at 1000 µM: 1.0 mM
Description: Inhibitory activity against visna virus was shown by a conventional plaque reduction assay. Visna virus, a lentivirus genetically very similar to the AIDS virus, is pathogenic for sheep and goats. See Sonigo et al., Cell 42, 369-382 (1985); Haase, Nature 322, 130-136 (1986). Inhibition of visna virus replication in vitro as a useful model for HIV and its inhibition by test compounds has been described by Frank et al., Antimicrobial Agents and Chemotherapy 31 (9), 1369-1374 (1987).
Various illustrative compounds synthesized above were tested for inhibition of visna virus in vitro in a plaque reduction assay (Method A) or for inhibition of HIV-1 in a test which measured reduction of cyto-pathogenic effect in virus-infected syncytium-sensitive Leu-3a-positive CEM cells grown in tissue culture (Method B) as follows:
Sheep choroid plexus (SCP) cells were obtained from American Type Culture Collection (ATCC) catalogue number CRL 1700 and were routinely passaged in vitro in Dulbecco's Modified Eagles (DME) medium supplemented with 20% fetal bovine serum (FBS). SCP cells were passaged once per week at a 1:2 or 1:3 split ratio. Visna was titrated by plaque assay in six-well plates. Virus pools were stored at -70° C.
SCP cells were cultured in 6-well plates to confluence. Wells were washed two times with serum free Minimal Essential Medium (MEM) to remove FBS. 0.2 ml of virus was added per well in MEM supplemented with 4 mM glutamine and gentamycin. After 1 hour adsorption, the virus was aspirated from each well. The appropriate concentration of each compound in 5 ml of Medium 199 (M-199) supplemented with 2% lamb serum, 4 mM glutamine, 0.5% agarose and gentamycin was added to each well. Cultures were incubated at 37° C. in a humidified 5% CO2 incubator for 3-4 weeks. To terminate the test, cultures were fixed in 10% formalin, the agar removed, the monolayers stained with 1% crystal violet and plaques counted. Each compound concentration was run in triplicate. […] 0 is no toxicity observed while 4 is total lysing of the cell monolayer. […]
Control wells without virus were completed to determine the toxicity of compounds.

Row | Compound | inhibition at 1 µM [%] | inhibition at 10 µM [%] | inhibition at 100 µM [%] | inhibition at 1000 µM [%] | inhibition at 0.5 µM (0.0005 mM) [%] | inhibition at 5 µM (0.005 mM) [%] | inhibition at 50 µM (0.05 mM) [%]
1 | CCCCN1C[C@H](OC(=O)OCC(C)C)[C@@H](O)[C@H](O)[C@H]1CO [Example 34, 1,5-(Butylimino)-1,5-dideoxy-D-glucitol, 2-[(2-methylpropyl)-carbonate]] | -2 | 7 | 89 | 100 |  |  | 
2 | CCCCN1C[C@H]2O[C@H]2[C@H](OC(C)=O)[C@H]1COC(C)=O [Example 45, 2,3-Anhydro-1,5-(butylimino)-1,5-dideoxy-D-mannitol, diacetate] |  | 5 | 44 | 85 |  |  | 
3 | CCCCN1C[C@H](Cl)[C@@H](OC(=O)CCC)[C@H](OC(=O)CCC)[C@H]1COC(=O)CCC [Example 40, 1,5-(Butylimino)-2-chloro-1,2,5-trideoxy-D-glucitrol, tributyrate] | 0 | 24 | 77 |  |  |  | 
4 | CCCCN1C[C@H](OC(=O)Nc2ccccc2)[C@@H](O)[C@H](O)[C@H]1CO [Example 35] |  | 31 | 41 |  |  |  | 
5 | CCCCN1C[C@H](Cl)[C@@H](OC(C)=O)[C@H](OC(C)=O)[C@H]1COC(C)=O [Example 38, 1,5-(Butylimino)-2-chloro-1,2,5-trideoxy-D-glucitol, triacetate] |  | 61 | 86 | 97 |  |  | 
6 | CC(=O)OC[C@@H]1[C@@H](OC(C)=O)[C@H](OC(C)=O)[C@@H](Cl)CN1CCCc1ccccc1 [Example 39, 2-Chloro-1,2,5-trideoxy-1,5-(3-phenyl)propylimino-D-glucitol, triacetate] |  |  |  |  | 44 | 58 | 98
7 | OC[C@@H]1[C@@H](O)[C@H](O)[C@@H](Cl)CN1Cc1ccccc1 [Example 32, 2-Chloro-1,2,5-trideoxy-1,5-(phenylmethyl)imino-D-glucitol] | 12 | -3 | 28 |  |  |  | 
